This is an account of results in PubChem BioAssay AID1963867 (Molecular Pharmacology Branch, DTP, NCI, 2024).
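Further: spheroids exposed to agents for seven days before reading; 100% = DMSO vehicle wells so lower means fewer viable cells.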

One test deals with KRAS-mutant PDC tumor spheroid with HUVEC/MSC, viability. The test can be described thus: Anticancer human tumor 327498-153-R-J2-PDC patient-derived uterine carcinosarcoma cell line growth inhibition [KRAS2]. Conditions: second compound 3.16 µM; first compound 0.316 µM; stronger effect = lower value. Summed up:
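KRAS-mutant tumor cells were grown as spheroids with HUVEC endothelial cells and human MSCs as stroma. Targeted agents were tested alone and with KRAS pathway inhibitors. Doses started at or near clinical Cmax, or 10 microM, descending half-log.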
`CCN1CCN(Cc2ccc(Nc3ncc(F)c(-c4cc(F)c5nc(C)n(C(C)C)c5c4)n3)nc2)CC1` + C=CC(=O)N1CCN(c2nc(=O)n(-c3c(C)ccnc3C(C)C)c3nc(-c4c(O)cccc4F)c(F)cc23)C(C)C1: the viability, T/C is 40.5%.
On the same count and under the same terms, for `CCNC(=O)CC1N=C(c2ccc(Cl)cc2)c2cc(OC)ccc2-n2c(C)nnc21` (stereo not given) + C=CC(=O)N1CCN(c2nc(=O)n(-c3c(C)ccnc3C(C)C)c3nc(-c4c(O)cccc4F)c(F)cc23)C(C)C1 the value was 46.3%.

The same test, now with this note: second compound 3.16 µM; first compound 1 µM; stronger effect = lower value.
For `CC(C)NCC(C(=O)N1CCN(c2ncnc3c2C(C)CC3O)CC1)c1ccc(Cl)cc1` (stereo not given) + C=CC(=O)N1CCN(c2nc(=O)n(-c3c(C)ccnc3C(C)C)c3nc(-c4c(O)cccc4F)c(F)cc23)C(C)C1, the viability, T/C is 12.2%.
As for `CC1COCCN1c1cc(-c2ccnn2C)c2ccnc(-c3ccn[nH]3)c2n1` (stereo not given) + C=CC(=O)N1CCN(c2nc(=O)n(-c3c(C)ccnc3C(C)C)c3nc(-c4c(O)cccc4F)c(F)cc23)C(C)C1, the viability, T/C was 7.29%.
On to `CCN1CCN(Cc2ccc(Nc3ncc(F)c(-c4cc(F)c5nc(C)n(C(C)C)c5c4)n3)nc2)CC1` + C=CC(=O)N1CCN(c2nc(=O)n(-c3c(C)ccnc3C(C)C)c3nc(-c4c(O)cccc4F)c(F)cc23)C(C)C1, for which the viability, T/C was 36.9%.
In the case of `CCNC(=O)CC1N=C(c2ccc(Cl)cc2)c2cc(OC)ccc2-n2c(C)nnc21` (stereo not given) + C=CC(=O)N1CCN(c2nc(=O)n(-c3c(C)ccnc3C(C)C)c3nc(-c4c(O)cccc4F)c(F)cc23)C(C)C1, the viability, T/C was 35.8%.

Staying with this test, now noted: second compound 3.16 µM; first compound 3.16 µM; stronger effect = lower value.
With `CC(C)NCC(C(=O)N1CCN(c2ncnc3c2C(C)CC3O)CC1)c1ccc(Cl)cc1` (stereo not given) + C=CC(=O)N1CCN(c2nc(=O)n(-c3c(C)ccnc3C(C)C)c3nc(-c4c(O)cccc4F)c(F)cc23)C(C)C1, the viability, T/C is 9.99%.
As for `CC1COCCN1c1cc(-c2ccnn2C)c2ccnc(-c3ccn[nH]3)c2n1` (stereo not given) + C=CC(=O)N1CCN(c2nc(=O)n(-c3c(C)ccnc3C(C)C)c3nc(-c4c(O)cccc4F)c(F)cc23)C(C)C1, the viability, T/C was 6.89%.
For the compound `CCNC(=O)CC1N=C(c2ccc(Cl)cc2)c2cc(OC)ccc2-n2c(C)nnc21` (stereo not given) + C=CC(=O)N1CCN(c2nc(=O)n(-c3c(C)ccnc3C(C)C)c3nc(-c4c(O)cccc4F)c(F)cc23)C(C)C1, the viability, T/C was 26.5%.

The test is the same for the next values; noted with them: second compound 3.16 µM; first compound 10 µM; stronger effect = lower value.
With `CC(C)NCC(C(=O)N1CCN(c2ncnc3c2C(C)CC3O)CC1)c1ccc(Cl)cc1` (stereo not given) + C=CC(=O)N1CCN(c2nc(=O)n(-c3c(C)ccnc3C(C)C)c3nc(-c4c(O)cccc4F)c(F)cc23)C(C)C1, the viability, T/C was 8.2%.
The same measure, in the same setting: for `CCNC(=O)CC1N=C(c2ccc(Cl)cc2)c2cc(OC)ccc2-n2c(C)nnc21` (stereo not given) + C=CC(=O)N1CCN(c2nc(=O)n(-c3c(C)ccnc3C(C)C)c3nc(-c4c(O)cccc4F)c(F)cc23)C(C)C1 the value was 19.1%.

The same test, now with this note: second compound 10 µM; first compound 0.00316 µM; stronger effect = lower value.
Take `CCN1CCN(Cc2ccc(Nc3ncc(F)c(-c4cc(F)c5nc(C)n(C(C)C)c5c4)n3)nc2)CC1` + C=CC(=O)N1CCN(c2nc(=O)n(-c3c(C)ccnc3C(C)C)c3nc(-c4c(O)cccc4F)c(F)cc23)C(C)C1: the viability, T/C was 41.9%.

Staying with this test, now noted: second compound 10 µM; first compound 0.01 µM; stronger effect = lower value.
Regarding `CC1COCCN1c1cc(-c2ccnn2C)c2ccnc(-c3ccn[nH]3)c2n1` (stereo not given) + C=CC(=O)N1CCN(c2nc(=O)n(-c3c(C)ccnc3C(C)C)c3nc(-c4c(O)cccc4F)c(F)cc23)C(C)C1, the viability, T/C is 28.5%.
Regarding `CCN1CCN(Cc2ccc(Nc3ncc(F)c(-c4cc(F)c5nc(C)n(C(C)C)c5c4)n3)nc2)CC1` + C=CC(=O)N1CCN(c2nc(=O)n(-c3c(C)ccnc3C(C)C)c3nc(-c4c(O)cccc4F)c(F)cc23)C(C)C1, the viability, T/C was 32.5%.

The same test, now with this note: second compound 10 µM; first compound 0.0316 µM; stronger effect = lower value.
Regarding `CC(C)NCC(C(=O)N1CCN(c2ncnc3c2C(C)CC3O)CC1)c1ccc(Cl)cc1` (stereo not given) + C=CC(=O)N1CCN(c2nc(=O)n(-c3c(C)ccnc3C(C)C)c3nc(-c4c(O)cccc4F)c(F)cc23)C(C)C1, the viability, T/C was 33.5%.
Regarding `CC1COCCN1c1cc(-c2ccnn2C)c2ccnc(-c3ccn[nH]3)c2n1` (stereo not given) + C=CC(=O)N1CCN(c2nc(=O)n(-c3c(C)ccnc3C(C)C)c3nc(-c4c(O)cccc4F)c(F)cc23)C(C)C1, the viability, T/C is 14.4%.
As for `CCN1CCN(Cc2ccc(Nc3ncc(F)c(-c4cc(F)c5nc(C)n(C(C)C)c5c4)n3)nc2)CC1` + C=CC(=O)N1CCN(c2nc(=O)n(-c3c(C)ccnc3C(C)C)c3nc(-c4c(O)cccc4F)c(F)cc23)C(C)C1, the viability, T/C was 35.6%.
Still for that read-out and setting: for `CCNC(=O)CC1N=C(c2ccc(Cl)cc2)c2cc(OC)ccc2-n2c(C)nnc21` (stereo not given) + C=CC(=O)N1CCN(c2nc(=O)n(-c3c(C)ccnc3C(C)C)c3nc(-c4c(O)cccc4F)c(F)cc23)C(C)C1 the value was 41.6%.

Staying with this test, now noted: second compound 10 µM; first compound 0.1 µM; stronger effect = lower value.
On to `CC(C)NCC(C(=O)N1CCN(c2ncnc3c2C(C)CC3O)CC1)c1ccc(Cl)cc1` (stereo not given) + C=CC(=O)N1CCN(c2nc(=O)n(-c3c(C)ccnc3C(C)C)c3nc(-c4c(O)cccc4F)c(F)cc23)C(C)C1, for which the viability, T/C is 18.2%.
Take `CC1COCCN1c1cc(-c2ccnn2C)c2ccnc(-c3ccn[nH]3)c2n1` (stereo not given) + C=CC(=O)N1CCN(c2nc(=O)n(-c3c(C)ccnc3C(C)C)c3nc(-c4c(O)cccc4F)c(F)cc23)C(C)C1: the viability, T/C was 11.9%.
On the same count and under the same terms, the figure for `CCN1CCN(Cc2ccc(Nc3ncc(F)c(-c4cc(F)c5nc(C)n(C(C)C)c5c4)n3)nc2)CC1` + C=CC(=O)N1CCN(c2nc(=O)n(-c3c(C)ccnc3C(C)C)c3nc(-c4c(O)cccc4F)c(F)cc23)C(C)C1 is 36.2%; for `CCNC(=O)CC1N=C(c2ccc(Cl)cc2)c2cc(OC)ccc2-n2c(C)nnc21` (stereo not given) + C=CC(=O)N1CCN(c2nc(=O)n(-c3c(C)ccnc3C(C)C)c3nc(-c4c(O)cccc4F)c(F)cc23)C(C)C1 it is 43.3%.

Staying with this test, now noted: second compound 10 µM; first compound 0.316 µM; stronger effect = lower value.
As to `CC(C)NCC(C(=O)N1CCN(c2ncnc3c2C(C)CC3O)CC1)c1ccc(Cl)cc1` (stereo not given) + C=CC(=O)N1CCN(c2nc(=O)n(-c3c(C)ccnc3C(C)C)c3nc(-c4c(O)cccc4F)c(F)cc23)C(C)C1, the viability, T/C was 14.6%.
Regarding `CC1COCCN1c1cc(-c2ccnn2C)c2ccnc(-c3ccn[nH]3)c2n1` (stereo not given) + C=CC(=O)N1CCN(c2nc(=O)n(-c3c(C)ccnc3C(C)C)c3nc(-c4c(O)cccc4F)c(F)cc23)C(C)C1, the viability, T/C is 9.29%.
On to `CCN1CCN(Cc2ccc(Nc3ncc(F)c(-c4cc(F)c5nc(C)n(C(C)C)c5c4)n3)nc2)CC1` + C=CC(=O)N1CCN(c2nc(=O)n(-c3c(C)ccnc3C(C)C)c3nc(-c4c(O)cccc4F)c(F)cc23)C(C)C1, for which the viability, T/C is 39.3%.
Consider `CCNC(=O)CC1N=C(c2ccc(Cl)cc2)c2cc(OC)ccc2-n2c(C)nnc21` (stereo not given) + C=CC(=O)N1CCN(c2nc(=O)n(-c3c(C)ccnc3C(C)C)c3nc(-c4c(O)cccc4F)c(F)cc23)C(C)C1, for which the viability, T/C is 33.2%.

The test is the same for the next values; noted with them: second compound 10 µM; first compound 1 µM; stronger effect = lower value.
Turning to `CC(C)NCC(C(=O)N1CCN(c2ncnc3c2C(C)CC3O)CC1)c1ccc(Cl)cc1` (stereo not given) + C=CC(=O)N1CCN(c2nc(=O)n(-c3c(C)ccnc3C(C)C)c3nc(-c4c(O)cccc4F)c(F)cc23)C(C)C1, the viability, T/C was 9.84%.
Regarding `CC1COCCN1c1cc(-c2ccnn2C)c2ccnc(-c3ccn[nH]3)c2n1` (stereo not given) + C=CC(=O)N1CCN(c2nc(=O)n(-c3c(C)ccnc3C(C)C)c3nc(-c4c(O)cccc4F)c(F)cc23)C(C)C1, the viability, T/C is 8.01%.
Consider `CCN1CCN(Cc2ccc(Nc3ncc(F)c(-c4cc(F)c5nc(C)n(C(C)C)c5c4)n3)nc2)CC1` + C=CC(=O)N1CCN(c2nc(=O)n(-c3c(C)ccnc3C(C)C)c3nc(-c4c(O)cccc4F)c(F)cc23)C(C)C1, for which the viability, T/C was 2.69%.
For `CCNC(=O)CC1N=C(c2ccc(Cl)cc2)c2cc(OC)ccc2-n2c(C)nnc21` (stereo not given) + C=CC(=O)N1CCN(c2nc(=O)n(-c3c(C)ccnc3C(C)C)c3nc(-c4c(O)cccc4F)c(F)cc23)C(C)C1, the viability, T/C was 26.9%.

Staying with this test, now noted: second compound 10 µM; first compound 3.16 µM; stronger effect = lower value.
In the case of `CC(C)NCC(C(=O)N1CCN(c2ncnc3c2C(C)CC3O)CC1)c1ccc(Cl)cc1` (stereo not given) + C=CC(=O)N1CCN(c2nc(=O)n(-c3c(C)ccnc3C(C)C)c3nc(-c4c(O)cccc4F)c(F)cc23)C(C)C1, the viability, T/C is 9.14%.
In the case of `CC1COCCN1c1cc(-c2ccnn2C)c2ccnc(-c3ccn[nH]3)c2n1` (stereo not given) + C=CC(=O)N1CCN(c2nc(=O)n(-c3c(C)ccnc3C(C)C)c3nc(-c4c(O)cccc4F)c(F)cc23)C(C)C1, the viability, T/C is 6.76%.
In the case of `CCNC(=O)CC1N=C(c2ccc(Cl)cc2)c2cc(OC)ccc2-n2c(C)nnc21` (stereo not given) + C=CC(=O)N1CCN(c2nc(=O)n(-c3c(C)ccnc3C(C)C)c3nc(-c4c(O)cccc4F)c(F)cc23)C(C)C1, the viability, T/C is 23.5%.

The test is the same for the next values; noted with them: second compound 10 µM; first compound 10 µM; stronger effect = lower value.
Regarding `CC(C)NCC(C(=O)N1CCN(c2ncnc3c2C(C)CC3O)CC1)c1ccc(Cl)cc1` (stereo not given) + C=CC(=O)N1CCN(c2nc(=O)n(-c3c(C)ccnc3C(C)C)c3nc(-c4c(O)cccc4F)c(F)cc23)C(C)C1, the viability, T/C was 3.03%.
`CCNC(=O)CC1N=C(c2ccc(Cl)cc2)c2cc(OC)ccc2-n2c(C)nnc21` (stereo not given) + C=CC(=O)N1CCN(c2nc(=O)n(-c3c(C)ccnc3C(C)C)c3nc(-c4c(O)cccc4F)c(F)cc23)C(C)C1: the viability, T/C was 17.9%.
